# Assay results as given in patent US20240190871A1, “KRASG12D INHIBITOR, PREPARATION METHOD THEREFOR AND APPLICATION THEREOF” (YA THERAPEUTICS INC, priority 2021, published 2024).
# Test system: ATCC CRL-1739 (KRASG^12D mutant) cells
# Test: Tumor cell proliferation inhibition experiment (Cell Titer-Glo, 72 hours)
# Type: cell-based
# Settings: 72 hours incubation, 10% fetal bovine serum, ATP content
# Procedure: The ATCC CRL-1739 (KRASG^12D mutant) cells were digested, centrifuged and resuspended, and the cell density was measured with a Scepter automatic cell counter. The cells were diluted to a solution containing 44,000 cells per milliliter, and the density-adjusted cell solution was 90 per well. Microliters were added to a 96-well culture plate. The 96-well plate was placed in a 37° C., 5% CO2 incubator. After the cells were cultured for 24 hours, different concentrations of the compounds to be tested were added. The cells were incubated with the compounds for 72 hours in the presence of 10% fetal bovine serum. Glo Luminescent Cell Viability Assay Kit (see manufacturer's instructions for details) was used to measure ATP content to assess cell growth inhibition. Briefly, 30 μl of Cell Titer-Glo reagent was added to each well, and the plate was shaken for 10 minutes to induce cell lysis. FluoroskanAscentFL (Thermo) assay records the […], and the maximum signal value is obtained from cells treated with DMSO for 72 hours. The minimum signal value was obtained from the medium alone (the number of cells was zero), and the % inhibition rate=(the maximum signal value compound signal value)/(the maximum signal value−the minimum signal value×100%, and the data were processed using Graphpadprism 5 software. By sigmoid Dose-response curve fitting to calculate IC50 value. “A” means IC50≤50 nM; “B” means 50<IC50≤500 nM; “C” means 500<IC50≤2000 nM; “D” means 2000<IC50
row,SMILES,IC50 [µM]
1,"C[C@@H]1CNCCN1c1nc(OCCN(C)C)nc2nc(-c3c(O)cccc3F)c(F)cc12 [Compound 2, 2-(2-(2-(dimethylamino)ethoxy)-6-fluoro-4-((R)-2-methylpiperazin-1-yl)pyrido[2,3-d]pyrimidin-7-yl)-3-fluorophenol]",> 2
2,"C[C@@H]1CNCCN1c1nc(OC[C@@H]2CCCN2C)nc2nc(-c3ccccc3Cl)c(F)cc12 [Compound 32, 7-(2-chlorophenyl)-6-fluoro-4-((R)-2-methylpiperazin-1-yl)-2-(((S)-1-methylpyrrolidin-2-yl)methoxy)pyrido [2,3-d]pyrimidine]",> 2
3,"C[C@@H]1CNCCN1c1nc(OC[C@@H]2CCCN2C)nc2nc(-c3cccc4ccccc34)c(F)cc12 [Compound 35, 6-fluoro-4-((R)-2-methylpiperazin-1-yl)-2-(((S)-1-methylpyrrolidin-2-yl)methoxy)-7-(naphthalen-1-yl)pyrido[2,3-d]pyrimidine]",> 2
4,"C[C@@H]1CNCCN1c1nc(OC[C@@H]2CCCN2C)nc2nc(-c3ccc4ccccc4c3)c(F)cc12 [Compound 37, 6-fluoro-4-((R)-2-methylpiperazin-1-y1)-2-(((S)-1-methylpyrrolidin-2-yl)methoxy)-7-(naphthalen-2-yl)pyrido[2,3-d]pyrimidine]",> 2
5,"C[C@@H]1CNCCN1c1nc(OC[C@@H]2CCCN2C)nc2nc(-c3cccc4ccsc34)c(F)cc12 [Compound 38, 7-(benzo[b]thiophen-7-yl)-6-fluoro-4-((R)-2-methylpiperazin-1-y1)-2-(((S)-1-methylpyrrolidin-2-yl)methoxy)pyrido [2,3-d]pyrimidine]",> 2
6,"C[C@@H]1CNCCN1c1nc(OC[C@@H]2CCCN2C)nc2nc(-c3cccc4cccnc34)c(F)cc12 [Compound 39, 6-fluoro-4-((R)-2-methylpiperazin-1-yl)-2-(((S)-1-methylpyrrolidin-2-yl)methoxy)-7-(quinolin-8-yl)pyrido[2,3-d]pyrimidine]",> 2
7,"C[C@@H]1CNCCN1c1nc(OC[C@@H]2CCCN2C)nc2nc(-c3cccc4ccoc34)c(F)cc12 [Compound 40, 7-(benzofuran-7-yl)-6-fluoro-4-((R)-2-methylpiperazin-1-yl)-2-(((S)-1-methylpyrrolidin-2-yl)methoxy)pyrido [2,3-d]pyrimidine]",> 2
8,"C[C@@H]1CNCCN1c1nc(OC[C@@H]2CCCN2C)nc2nc(-c3cccc4c3ccn4C)c(F)cc12 [Compound 41, 6-fluoro-7-(1-methyl-1H-indol-4-yl)-4-((R)-2-methylpiperazin-1-yl)-2-(((S)-1-methylpyrrolidin-2-yl)methoxy)pyrido [2,3-d]pyrimidine]",> 2
9,"C[C@@H]1CNCCN1c1nc(OC[C@@H]2CCCN2C)nc2nc(-c3cccc4c3cnn4C)c(F)cc12 [Compound 42, 6-fluoro-7-(1-methyl-1H-indazol-4-yl)-4-((R)-2-methylpiperazin-1-yl)-2-(((S)-1-methylpyrrolidin-2-yl)methoxy)pyrido [2,3-d]pyrimidine]",> 2
10,"C[C@@H]1CNCCN1c1nc(OC[C@@H]2CCCN2C)nc2nc(-c3cccc4ccncc34)c(F)cc12 [Compound 43, 6-fluoro-7-(isoquinolin-8-y1)-4-((R)-2-methylpiperazin-1-y1)-2-(((S)-1-methylpyrrolidin-2-yl)methoxy)pyrido [2,3-d]pyrimidine]",0.5 to 2
11,"C[C@@H]1CNCCN1c1nc(OC[C@@H]2CCCN2C)nc2nc(-c3cccc4ncccc34)c(F)cc12 [Compound 44, 6-fluoro-4-((R)-2-methylpiperazin-1-y1)-2-(((S)-1-methylpyrrolidin-2-yl)methoxy)-7-(quinolin-5-yl)pyrido[2,3-d]pyrimidine]",0.5 to 2
12,"CN1CCC[C@H]1COc1nc(N2C3CNCC2C3)c2cc(F)c(-c3cc(O)cc4cccc(Cl)c34)nc2n1 [Compound 47, 4-(4-(3,6-diazabicyclo[3.1.1]heptan-6-yl)-6-fluoro-2-(((S)-1-methylpyrrolidin-2-yl)methoxy)pyrido [2,3-d]pyrimidin-7-yl)-5-chloronaphthalen-2-ol]",0.05 to 0.5
13,"CN1CCC[C@H]1COc1nc(N2C3CNCC2C3)c2cc(F)c(-c3cc(O)cc4cccc(F)c34)nc2n1 [Compound 48, 4-(4-(3,6-diazabicyclo[3.1.1]heptan-6-yl)-6-fluoro-2-(((S)-1-methylpyrrolidin-2-yl)methoxy)pyrido [2,3-d]pyrimidin-7-yl)-5-fluoronaphthalen-2-ol]",≤ 0.05
14,"CN1C[C@H](F)C[C@H]1COc1nc(N2C3CNCC2C3)c2cc(F)c(-c3cc(O)cc4cccc(F)c34)nc2n1 [Compound 49, 4-(4-(3,6-diazabicyclo[3.1.1]heptan-6-yl)-6-fluoro-2-(((2S,4R)-4-fluoro-1-methylpyrrolidin-2-yl)methoxy)pyrido [2,3-d]pyrimidin-7-y1)-5-fluoronaphthalen-2-ol]",0.5 to 2
15,"Oc1cc(-c2nc3nc(OC[C@@H]4C[C@@H](F)CN4C4CC4)nc(N4C5CNCC4C5)c3cc2F)c2c(F)cccc2c1 [Compound 50, 4-(4-(3,6-diazabicyclo[3.1.1]heptan-6-yl)-2-(((2S,4R)-1-cyclopropyl-4-fluoropyrrolidin-2-yl)methoxy)-6-fluoropyrido[2,3-d]pyrimidin-7-yl)-5-fluoronaphthalen-2-ol]",0.5 to 2
16,"Oc1cc(-c2nc3nc(OCC4(CN5CCCC5)CC4)nc(N4C5CNCC4C5)c3cc2F)c2c(F)cccc2c1 [Compound 51, 4-(4-(3,6-diazabicyclo[3.1.1]heptan-6-yl)-6-fluoro-2-((1-(pyrrolidin-1-ylmethyl)cyclopropyl)methoxy)pyrido[2,3-d]pyrimidin-7-yl)-5-fluoronaphthalen-2-ol]",0.05 to 0.5
17,"Oc1cc(-c2nc3nc(OCC4(CN5CC[C@@H](F)C5)CC4)nc(N4C5CNCC4C5)c3cc2F)c2c(F)cccc2c1 [Compound 52, 4-(4-(3,6-diazabicyclo[3.1.1]heptan-6-yl)-6-fluoro-2-((1-(((R)-3-fluoropyrrolidin-1-yl)methyl)cyclopropyl)methoxy)pyrido[2,3-d]pyrimidin-7-yl)-5-fluoronaphthalen-2-ol]",0.05 to 0.5
18,"Oc1cc(-c2nc3nc(OC[C@@]45CCCN4C[C@H](F)C5)nc(N4C5CNCC4C5)c3cc2F)c2c(Cl)cccc2c1 [Compound 53, 4-(4-(3,6-diazabicyclo[3.1.1]heptan-6-yl)-6-fluoro-2-(((2R,7aS)-2-fluorohexahydro-1H-pyrrolizin-7a-yl)methoxy)pyrido[2,3-d]pyrimidin-7-yl)-5-chloronaphthalen-2-ol]",≤ 0.05
19,"Oc1cc(-c2nc3nc(OC[C@@]45CCCN4C[C@H](F)C5)nc(N4C[C@H]5CC[C@@H](C4)N5)c3cc2F)c2c(Cl)cccc2c1 [Compound 55, 4-(4-((1R,5S)-3,8-diazabicyclo [3.2.1]octan-3-yl)-6-fluoro-2-(((2R,7aS)-2-fluorohexahydro-1H-pyrrolizin-7a-yl)methoxy)pyrido[2,3-d]pyrimidin-7-yl)-5-chloronaphthalen-2-ol]",≤ 0.05
20,"Oc1cc(-c2nc3nc(OC[C@@]45CCCN4CC(F)C5)nc(N4CC5CCC(C4)N5)c3cc2F)c2c(F)cccc2c1 (stereo partly drawn) [Compound 56, 4-(4-((1R,5S)-3,8-diazabicyclo [3.2.1]octan-3-yl)-6-fluoro-2-(((2R,7aS)-2-fluorohexahydro-1H-pyrrolizin-7a-yl)methoxy)pyrido[2,3-d]pyrimidin-7-y1)-5-fluoronaphthalen-2-ol]",≤ 0.05
